The source made the active and inactive calls. The rule behind the calls is not given here.
Columns and labels:
[1] = target: T1, Disintegrin and metalloproteinase domain-containing protein 8 (Homo sapiens) (UniProt P78325); assay: Inhibition of ADAM8 in human MDA-MB-231 cells assessed as inhibition of Akt phosphorylation at Ser473 residue at 10 uM incubated for 48 hrs by western blot analysis; assay type: cell-based
T1 sequence (whole entry): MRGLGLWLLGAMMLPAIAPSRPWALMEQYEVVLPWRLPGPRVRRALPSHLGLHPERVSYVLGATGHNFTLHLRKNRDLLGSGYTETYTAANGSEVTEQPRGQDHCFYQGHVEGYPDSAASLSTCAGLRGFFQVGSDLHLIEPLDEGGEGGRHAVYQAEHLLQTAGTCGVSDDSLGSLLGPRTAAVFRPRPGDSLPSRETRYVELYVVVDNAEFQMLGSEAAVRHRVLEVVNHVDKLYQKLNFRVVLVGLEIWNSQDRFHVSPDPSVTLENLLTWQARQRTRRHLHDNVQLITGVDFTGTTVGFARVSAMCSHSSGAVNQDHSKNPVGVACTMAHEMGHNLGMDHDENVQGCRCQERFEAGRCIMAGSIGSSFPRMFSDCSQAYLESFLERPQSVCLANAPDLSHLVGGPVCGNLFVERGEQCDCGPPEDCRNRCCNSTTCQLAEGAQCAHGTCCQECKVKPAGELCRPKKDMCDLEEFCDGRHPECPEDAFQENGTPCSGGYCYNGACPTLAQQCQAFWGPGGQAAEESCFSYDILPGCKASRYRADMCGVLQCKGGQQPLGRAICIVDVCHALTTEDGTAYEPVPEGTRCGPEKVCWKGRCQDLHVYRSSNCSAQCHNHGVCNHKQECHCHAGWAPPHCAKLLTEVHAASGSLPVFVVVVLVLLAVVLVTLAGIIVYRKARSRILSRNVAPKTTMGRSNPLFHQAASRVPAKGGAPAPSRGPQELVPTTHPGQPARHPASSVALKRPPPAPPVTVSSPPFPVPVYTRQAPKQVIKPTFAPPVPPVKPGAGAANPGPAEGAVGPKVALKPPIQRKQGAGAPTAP

[2] = target: T1, Disintegrin and metalloproteinase domain-containing protein 8 (Homo sapiens); assay: Inhibition of ADAM8 in human MDA-MB-231 cells assessed as inhibition of ERK1/2 phosphorylation at Thr202/Tyr204 residues at 10 uM incubated for 48 hrs by western blot analysis; assay type: cell-based

inhibition [1] | inhibition [2] | Structure (SMILES)
inactive | inactive | O=C(NCCC[C@@H](NS(=O)(=O)c1ccc(OCc2cc(Br)cc(Br)c2)cc1)C(=O)NO)c1cccc(C(=O)NCCC[C@@H](NS(=O)(=O)c2ccc(OCc3cc(Br)cc(Br)c3)cc2)C(=O)NO)c1
inactive | inactive | O=C(NCCC[C@@H](NS(=O)(=O)c1ccc(OCc2cc(Br)cc(Br)c2)cc1)C(=O)NO)NCCC[C@@H](NS(=O)(=O)c1ccc(OCc2cc(Br)cc(Br)c2)cc1)C(=O)NO
inactive | inactive | O=C(CCCNC(=O)c1cccc(C(=O)NCCCC(=O)NCCC[C@@H](NS(=O)(=O)c2ccc(OCc3cc(Br)cc(Br)c3)cc2)C(=O)NO)c1)NCCC[C@@H](NS(=O)(=O)c1ccc(OCc2cc(Br)cc(Br)c2)cc1)C(=O)NO

— ChEMBL document CHEMBL5226358, “Discovery of Dimeric Arylsulfonamides as Potent ADAM8 Inhibitors” (ACS Med Chem Lett, 2021)
